We go through 38 molecules from US8546404B2, “Compounds that are ERK inhibitors” (Merck Sharp & Dohme, priority 2005, dated 2013).

Structures are written as SMILES.

The target of one data set is fully phosphorylated, active Mouse ERK2 protein (Mus musculus (Mouse), UniProt P63085). As to the kind of experiment: Active ERK2 Assay (IMAP format). Type of data set: biochemical. The conditions noted are these: read-out: AERK2 IC50. Here is the method: Activated ERK2 activity was also determined in the IMAP assay format using the procedure outlined above. […] Reactions proceeded for 30 minutes before termination by addition of 60 μl IMAP detection beads in binding buffer. Plates were read as above after 30 minute binding equilibration.
Chain of fully phosphorylated, active Mouse ERK2 protein (P63085 whole entry): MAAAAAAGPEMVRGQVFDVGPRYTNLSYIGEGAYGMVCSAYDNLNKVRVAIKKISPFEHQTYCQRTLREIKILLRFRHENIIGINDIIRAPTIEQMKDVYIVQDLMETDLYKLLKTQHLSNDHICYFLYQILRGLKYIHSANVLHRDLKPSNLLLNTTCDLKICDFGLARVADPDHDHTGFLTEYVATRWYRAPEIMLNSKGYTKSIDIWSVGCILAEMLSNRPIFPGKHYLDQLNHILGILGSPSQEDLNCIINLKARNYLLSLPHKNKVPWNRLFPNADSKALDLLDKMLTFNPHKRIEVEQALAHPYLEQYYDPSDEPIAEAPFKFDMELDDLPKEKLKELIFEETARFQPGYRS
Usually IC50 stands for the concentration needed to halve the response being measured. With `CO[C@@]1(C(=O)Nc2ccc3[nH]nc(-c4ccnc(C5CC5)c4)c3c2)CCN(CC(=O)N2CC=C(c3ccc(-c4ncccn4)cc3)CC2)C1` [Example 459], the IC50 is 2.5 nM.

For `CO[C@@]1(C(=O)Nc2ccc3[nH]nc(-c4ccc(F)cc4)c3c2)CCN(CC(=O)N2CCN(c3cc(F)c(-c4ncccn4)cc3F)CC2)C1` [Example 663], the IC50 was in the range of 0.16 to 18 nM.

On to `CO[C@@]1(C(=O)Nc2ccc3[nH]nc(-c4cc[n+]([O-])c(C)c4)c3c2)CCN(CC(=O)N2CC=C(c3ccc(-c4ncccn4)cc3)CC2)C1` [Example 666], for which the IC50 lay within 0.16 to 18 nM.

In the case of `CO[C@@]1(C(=O)Nc2ccc3[nH]nc(-c4cc[n+]([O-])c(C5CC5)c4)c3c2)CCN(CC(=O)N2CCC(c3ccc(-c4ncccn4)cc3)CC2)C1` [Example 669], the IC50 is 0.16 to 18 nM. For the molecule `CO[C@@]1(C(=O)Nc2ccc3[nH]nc(-c4cc[n+]([O-])c(C5CC5)c4)c3c2)CCN(CC(=O)N2CC=C(c3ccc(-c4ncccn4)cc3)CC2)C1` [Example 670], the IC50 was 0.16 to 18 nM. Still for that read-out and setting: the same measure for `COc1cc(C2CCN(C(=O)CN3CC[C@@](OC)(C(=O)Nc4ccc5[nH]nc(-c6ccnc(C7CC7)c6)c5c4)C3)CC2)ccc1-c1ncccn1` [Example 672]: 0.16 to 18 nM; for `COc1cc(C2=CCN(C(=O)CN3CC[C@@](OC)(C(=O)Nc4ccc5[nH]nc(-c6ccnc(C7CC7)c6)c5c4)C3)CC2)ccc1-c1ncccn1` [Example 673]: 0.16 to 18 nM. For the molecule `CO[C@@]1(C(=O)Nc2ccc3[nH]nc(-c4ccnc(C(F)F)c4)c3c2)CCN(CC(=O)N2CCC(C)(c3ccc(-c4ncccn4)cc3)CC2)C1` [Example 679], the IC50 was in the range of 0.16 to 18 nM. For the molecule `CO[C@@]1(C(=O)Nc2ccc3[nH]nc(-c4ccnc(C5CC5)c4)c3c2)CCN(CC(=O)N2CCC(C)(c3ccc(-c4ncccn4)cc3)CC2)C1` [Example 680], the IC50 was in the range of 0.16 to 18 nM. The same measure, in the same setting: the same measure for `CO[C@@]1(C(=O)Nc2ccc3[nH]nc(-c4ccnc(C(F)(F)F)c4)c3c2)CCN(CC(=O)N2CC=C(c3ccc(-c4ncccn4)cc3F)CC2)C1` [Example 682]: 0.16 to 18 nM; for `CO[C@@]1(C(=O)Nc2ccc3[nH]nc(-c4ccc(F)cc4)c3c2)CCN(CC(=O)N2CC=C(c3ccc(-c4ncccn4)s3)CC2)C1` [Example 737]: 0.16 to 18 nM; for `COCCOc1ccc(-c2n[nH]c3ccc(NC(=O)[C@]4(OC)CCN(CC(=O)N5CC=C(c6ncc(-c7ncccn7)cc6F)CC5)C4)cc23)cc1` [Example 738]: 0.16 to 18 nM. For `COCCOc1cc(-c2n[nH]c3ccc(NC(=O)[C@]4(OC)CCN(CC(=O)N5CC=C(c6ccc(-c7ncccn7)cc6)CC5)C4)cc23)ccc1F` [Example 741], the IC50 was in the range of 0.16 to 18 nM. As to `COCc1cc(-c2n[nH]c3ccc(NC(=O)[C@]4(OC)CCN(CC(=O)N5CC=C(c6ccc(-c7ncccn7)cc6F)CC5)C4)cc23)ccc1F` [Example 747], the IC50 fell in the range of 0.16 to 18 nM. The same measure, in the same setting: next, `COCCOc1ccc(-c2n[nH]c3ccc(NC(=O)[C@]4(OC)CCN(CC(=O)N5CC=C(c6ccc(-c7ncccn7)cc6)CC5)C4)cc23)cc1F` [Example 749]: 0.16 to 18 nM; `CO[C@@]1(C(=O)Nc2ccc3[nH]nc(-c4ccc(F)c(OCCO)c4)c3c2)CCN(CC(=O)N2CC=C(c3ccc(-c4ncccn4)cc3)CC2)C1` [Example 755]: 0.16 to 18 nM. As to `CO[C@@]1(C(=O)Nc2ccc3[nH]nc(-c4ccc(F)c(NCCO)c4)c3c2)CCN(CC(=O)N2CC=C(c3ccc(-c4ncccn4)cc3)CC2)C1` [Example 757], the IC50 is 0.16 to 18 nM. For the molecule `CO[C@@]1(C(=O)Nc2ccc3[nH]nc(-c4ccc(NCCO)cc4)c3c2)CCN(CC(=O)N2CC=C(c3ccc(-c4ncccn4)cc3)CC2)C1` [Example 758], the IC50 was 0.16 to 18 nM. For `COCCOc1ccc(-c2n[nH]c3ccc(NC(=O)[C@]4(OC)CCN(CC(=O)N5CCC(c6ccc(-c7ncccn7)cc6)CC5)C4)cc23)cc1` [Example 764], the concentration for half-maximal inhibition (IC50) is 0.16 to 18 nM.

On to `COCCOc1ccc(-c2n[nH]c3ccc(NC(=O)[C@]4(OC)CCN(CC(=O)N5CC=C(c6ncc(-c7ncccn7)s6)CC5)C4)cc23)cc1` [Example 765], for which the IC50 fell in the range of 0.16 to 18 nM. Consider `COCCOc1ccc(-c2n[nH]c3ccc(NC(=O)[C@]4(OC)CCN(CC(=O)N5CC=C(c6ccc(-c7ncccn7)cc6F)CC5)C4)cc23)cc1` [Example 767], for which the IC50 was 0.16 to 18 nM. Consider `CO[C@@]1(C(=O)Nc2ccc3[nH]nc(-c4ccc(F)cc4)c3c2)CCN(CC(=O)N2CC=C(c3ncc(-c4ncccn4)s3)CC2)C1` [Example 776], for which the IC50 was in the range of 0.16 to 18 nM.

As to `CO[C@@]1(C(=O)Nc2ccc3[nH]nc(-c4ccnc(C5CC5)c4)c3c2)CCN(CC(=O)N2CC=C(c3ncc(-c4ncccn4)s3)CC2)C1` [Example 777], the IC50 lay within 0.16 to 18 nM. As to `CO[C@@]1(C(=O)Nc2ccc3[nH]nc(C4CCOCC4)c3c2)CCN(CC(=O)N2CC=C(c3ccc(-c4ncccn4)cc3)CC2)C1` [Example 779], the IC50 was 0.16 to 18 nM. Turning to `CO[C@@]1(C(=O)Nc2ccc3[nH]nc(-c4ccnc(C(F)F)c4)c3c2)CCN(CC(=O)N2CC=C(c3ccc(-c4ncccn4)cc3)CC2)C1` [Example 785], the IC50 was in the range of 0.16 to 18 nM.

For `CO[C@@]1(C(=O)Nc2ccc3[nH]nc(-c4ccnc(C(F)F)c4)c3c2)CCN(CC(=O)N2CCC(c3ccc(-c4ncccn4)cc3)CC2)C1` [Example 786], the IC50 is 0.16 to 18 nM. As for `CO[C@@]1(C(=O)Nc2ccc3[nH]nc(-c4ccc(F)c(CO)c4)c3c2)CCN(CC(=O)N2CC=C(c3ccc(-c4ncccn4)cc3)CC2)C1` [Example 787], the IC50 is 0.16 to 1.5 nM.

For the molecule `CO[C@@]1(C(=O)Nc2ccc3[nH]nc(-c4ccnc(C(F)(F)F)c4)c3c2)CCN(CC(=O)N2CCC(c3ccc(-c4ncccn4)cc3)CC2)C1` [Example 788], the IC50 lay within 0.16 to 18 nM.

As for `CO[C@@]1(C(=O)Nc2ccc3[nH]nc(-c4ccnc(C)c4)c3c2)CCN(CC(=O)N2CCC(c3ccc(-c4ncccn4)cc3)CC2)C1` [Example 789], the IC50 was in the range of 0.16 to 18 nM. For the molecule `CO[C@@]1(C(=O)Nc2ccc3[nH]nc(-c4ccc(F)c(F)c4)c3c2)CCN(CC(=O)N2CCC(c3ccc(-c4ncccn4)cc3)CC2)C1` [Example 792], the IC50 was 0.16 to 18 nM. Turning to `CO[C@@]1(C(=O)Nc2ccc3[nH]nc(-c4ccc(N(C)C)cc4)c3c2)CCN(CC(=O)N2CCC(c3ccc(-c4ncccn4)cc3)CC2)C1` [Example 793], the IC50 fell in the range of 0.16 to 18 nM.

Regarding `CO[C@@]1(C(=O)Nc2ccc3[nH]nc(-c4ccc(F)c(CO)c4)c3c2)CCN(CC(=O)N2CCC(c3ccc(-c4ncccn4)cc3)CC2)C1` [Example 794], the IC50 lay in the range of 0.16 to 18 nM. As to `CO[C@@]1(C(=O)Nc2ccc3[nH]nc(-c4cn[nH]c4)c3c2)CCN(CC(=O)N2CC=C(c3ccc(-c4ncccn4)cc3)CC2)C1` [Example 796], the IC50 is 0.16 to 18 nM.

As for `CO[C@@]1(C(=O)Nc2ccc3[nH]nc(-c4ccc5c(c4)OCO5)c3c2)CCN(CC(=O)N2CCN(c3ccc(-c4ncccn4)cn3)C[C@H]2C)C1` [Example 799], the IC50 is 0.16 to 18 nM. Turning to `CCc1cc(-c2n[nH]c3ccc(NC(=O)[C@]4(OC)CCN(CC(=O)N5CC=C(c6nccs6)CC5)C4)cc23)ccn1` [Example 802], the IC50 lay within 0.16 to 18 nM. With `CO[C@@]1(C(=O)Nc2ccc3[nH]nc(-c4ccc(OCCO)cc4)c3c2)CCN(CC(=O)N2CC=C(c3ccc(-c4ncccn4)cc3)CC2)C1` [Example 822], the IC50 lay within 0.16 to 18 nM. Take `CO[C@@]1(C(=O)Nc2ccc3[nH]nc(-c4ccc(F)cc4)c3c2)CCN(CC(=O)N2CC=C(c3ccc(-c4ncc(N)cn4)cc3)CC2)C1` [Example 823]: the IC50 fell in the range of 0.16 to 18 nM.

Test system in the next data set: not listed separately
The data set can be described thus: Cassette Accelerating Rapid Rat Screen (CARRS), AUC during the first 6 hours. Type of data set: in vivo, Male Sprague-Dawley rats. The conditions noted are these: male, Sprague-Dawley, plasma, 10 mg/kg, PO, AUC during the first 6 hours (AUC6hr). The protocol:
The AUC (Area Under the Concentration-Time Curve During the First 6 Hours (AUC6hr) in Table 30 Below was Determined Using the Protocol of Cassette Accelerating Rapid Rat Screen (CARRS)
Animal Dosing and Sample Collection
Male Sprague-Dawley rats (Charles River, Co.) were pre-cannulated (femoral artery) in order to facilitate precise blood sampling times, and to reduce the stress on the animals caused by serial bleedings. Following an overnight fast, two rats were dosed orally with one compound at a dose of 10 mg/kg in a 5-mL/kg dose volume. Blood was collected into heparin-containing tubes serially from each animal at 0.5, 1, 2, 3, 4 and 6 h post-dosing and centrifuged to generate plasma. Approximately 100 μL of plasma were collected at the individual time points. The plasma samples were stored at −20° C. until analysis.
Plasma Sample and Standard Curve Preparation
A set of 12 rat plasma samples was generated for each NCE (i.e. 6 timepoints and n=2 rats). These 12 samples were pooled across the two rats at each timepoint to provide 6 pooled samples (one sample per time point) for each NCE. The pooled samples were assayed as cassettes of six (36 samples total) to provide data on the six compounds. The 50-μL aliquots of the 36 plasma samples were placed into individual wells of a 96-well plate. An additional compound (often a structural analog of the test compounds) was selected as the internal standard. A mini-calibration curve was prepared (three points plus a zero) for each compound assayed. Drug-free rat plasma was measured into 1-mL aliquots and each aliquot was spiked with known concentrations of the compounds to generate standards of the desired concentrations. The concentrations of the standards were chosen to bracket the expected concentration of the pooled samples based on historical data from previous studies on other compounds. For this work, the standards were set to contain concentrations of 25, 250 and 2500 ng NCE/mL plasma. The plasma standards were precipitated in duplicate along with the samples. Protein precipitation occurred after addition of 150 μL of acetonitrile containing the internal standard at a concentration of 1 ng/mL into each sample well using the Tomtec Quadra 96 system. The precipitated samples and standards were vortexed and centrifuged in the 96-well plate. Approximately 50-100 μL of the supernatant were removed and placed into a fresh 96-well plate using the Tomtec Quadra 96 system. A volume of 5-10 μL of the supernatant was used for analysis by HPLC-MS/MS. The mini-standard curve was run in duplicate, once before and once after the samples. Thus, a total of 14 study samples plus standards were analyzed per compound. In addition, solvent blanks were injected before and after each set of 14 and after the highest calibration standard for each compound; therefore, a total of 103 injections were made into each HPLC system for each set of six compounds. Multiple solvent blank injections could be made from a single well. Twelve solvent blank wells were designated in each 96-well plate. Thus, one batch (cassette) of six NCEs was prepared and assayed using one 96-well plate format.
All the compounds were analyzed using selected reaction monitoring (SRM) methods with LC/MS/MS instruments. Once the method development had been completed, the assay was quickly set up using a standard injection sequence template for the CARRS assay.
The term AUC denotes concentration integrated over time. A higher AUC goes with high exposure. As for `COC[C@@]1(C(=O)Nc2ccc3[nH]nc(-c4ccnc(C5CC5)c4)c3c2)CCN(CC(=O)N2CC=C(c3ccc(-c4ncccn4)cc3)CC2)C1` [Example 336, 3-Methoxymethyl-1-{2-[4-(4-pyrimidin-2-yl-phenyl)-3,6-dihydro-2H-pyridin-1-yl]-acetyl}-pyrrolidine-3-carboxylic acid [3-(2-cyclopropyl-pyridin-4-yl)-1H-indazol-5-yl]-amide], the AUC amounted to 7.22 µM·h. Same read-out and setting: the same measure for `CO[C@@]1(C(=O)Nc2ccc3[nH]nc(-c4ccnc(C5CC5)c4)c3c2)CCN(CC(=O)N2CC=C(c3ccc(-c4ncccn4)cc3)CC2)C1` [Example 459]: 1.2 µM·h.
